Assay results: PMC8620685, “Effect of Selected Silyl Groups on the Anticancer Activity of 3,4-Dibromo-5-Hydroxy-Furan-2(5H)-One Derivatives” (Pharmaceuticals, 2021)

System: survivin
Assay: Human Apoptosis Proteome Profiler array, survivin
Format: cell-based
Settings: HCT-116, 1 h exposure, 2 × IC50
From the text: To explore in detail the molecular mechanism of apoptosis induction by compounds 3b and 3c, we employed Human Apoptosis Proteome Profiler arrays that allow quantification of apoptosis-related biomarkers (Figure 3C). […] Collectively, it can be concluded that silyl derivative 3b promotes cell death in HCT 116 cells by the alteration of expression levels of survivin and activation of caspase-3.
The Human Apoptosis Array Kit (R&D Systems, Abingdon, UK) was used to determine the levels of expression of apoptosis-related proteins. 2.5 × 10^5 HCT 116 wt cells were seeded on 100 mm dishes (Nunc, ThermoFisher, Waltham, MA, USA) and allowed to attach for 24 h. Then the medium was replaced with tested compounds at a concentration corresponding 2 × IC50 value and the cells were incubated in 37 °C. After 60 min the cells were lysed and the lysates were clarified by centrifugation for 30 min at 14,000× g. The total protein concentration was measured using the Protein Quantification Kit-Rapid (Sigma-Aldrich, Taufkirchen, Germany) according to the manufacturer’s instruction. The next steps followed instructions from the manufacturer of the Human Apoptosis Array Kit. The membranes were then scanned in the G:Box trans illuminator (Syngene, Cambridge, UK) and the protein expression levels were quantified by densitometric analysis using ImageJ software.

In the case of `CC(C)[Si](OC1OC(=O)C(Br)=C1Br)(C(C)C)C(C)C` (stereo not shown) [Compound 3b, 3,4-Dibromo-5-(triisopropylsilyloxy)-furan-2(5H)-one], the survivin expression is reported as “down-regulation of survivin”.
